Where two headings read alike, the source gives them in different places.
Legend:
[1] = system: Human breast cancer cells MCF-7; test: Cell anti-proliferation assay (MTT), MCF-7; format: cell-based; conditions: MCF-7 cells, incubated for 5 days
Procedure: (§1) Human breast cancer cells MCF-7, human ovarian cancer cells A2780, human mantle cell lymphoma cells JEKO-1. DMEM medium (Bio-Channel), DMSO (dimethyl sulfoxide), MTT (thiazolyl blue), 0.25% EDTA-Trypsin (trypsin digestive solution), 1×PBS (phosphate buffered saline, pH 7.2), 96-well plate (Corning), fetal bovine serum (FBS), 10,000 U/mL penicillin-G/streptomycin, high-speed refrigerated centrifuge (EPPENDORF 5810R), and microplate reader (Tecan Spark).
(§2) • A) Tumor cells were cultured in DMEM (high glucose, containing 10% FBS and 100 U/mL penicillin-G/streptomycin) at 37 °C, 5% CO2 and saturated humidity until 80-90% confluence. • B) The medium in the 10 cm culture dish was removed. • C) Cells were rinsed once with 10 mL of 1×PBS. • D) 4 mL of 0.25% EDTA-Trypsin was added, and the cells were digested in a 37 °C, 5% CO2 incubator for 5 minutes. The mixture was transferred to a 15 mL centrifuge tube, centrifuged at 200 g for 5 minutes, and the supernatant was discarded to obtain cell pellet. • E) The cells were resuspended in 4 mL of DMEM medium, counted, and adjusted to 50,000 cells/mL. • F) 100 µL of cell suspension was added to each well of a 96-well plate, and the plate was incubated overnight at 37 °C in a 5% CO2 incubator.
(§3) • A) Gradient dilution solutions of the test compounds were prepared: the test compound was prepared into a 1 mM stock solution. Then 1.5 µL of the stock solution was dissolved in 1.5 mL of DMSO-free medium, followed by 3-fold serial gradient dilution with medium containing 0.1% DMSO to give 9 concentrations.
(§4) • A) The cell culture plate was taken out, and 10 µL of 5 mg/mL MTT was added in a biological safety cabinet; • B) The plate was returned to the incubator and incubated for another 3 hours; • C) The cell culture plate was taken out and the medium was removed, 100 µL of isopropanol (containing 0.4 mM HCl, 0.1% NP-40) was added, and the plate was shaken at room temperature for 30 minutes; • D) The absorbance at 570 nm was measured using a TECAN microplate reader.

[2] = system: human mantle cell lymphoma cells JEKO-1; test: Cell anti-proliferation assay (MTT), JEKO-1; format: cell-based; conditions: JEKO-1 cells, incubated for 5 days
Procedure: as §1, §2, §3, §4

[3] = system: human ovarian cancer cells A2780; test: Cell anti-proliferation assay (MTT), A2780; format: cell-based; conditions: incubated for 5 days
Procedure: as §1, §2, §3, §4

[4] = Preclinical pharmacokinetic study in rats; format: in vivo, Sprague-Dawley (SD) rats; conditions: male SD rats, oral gavage (p.o.) 10 mg/kg, plasma; for AUC(0-t) / Cmax / Tmax: rat
Procedure: Healthy adult Sprague-Dawley (SD) rats, male, 6-8 weeks old, weighing 200-300 g. EDTA-Na2 anticoagulant. Analytical balance, animal weighing scale, magnetic stirrer, refrigerated centrifuge, single-channel manual pipette, etc. About 10 mg of the test sample was precisely weighed, dissolved in a calculated volume of 5% DMSO, followed by addition of 10% solutol HS-15 and 85% normal saline. The mixture was sonicated and vortexed to homogeneity to obtain a solution with a concentration of 1 mg/mL. The solution was freshly prepared before use. Animals were housed in rat cages and fasted overnight (no less than 10 h) before the test, with free access to water. On the day of the test, animals were weighed and marked on the tail. Blank blood samples were collected before administration. The blood was collected via tail vein. • Route of administration: oral gavage (p.o.) • Dose: 10 mg/kg • Dosing volume: 10 mL/kg • Procedure: The rat was held upright with the left hand wearing bite-resistant glove. A 16-gauge gavage needle was inserted through the mouth into the esophagus. The needle was advanced gently without obvious resistance, and the drug solution was injected into the stomach. Whole blood (0.1 mL) were collected from each test animal before administration and at 0.5 […], and 24 h after administration into EDTA-Na2 anticoagulant tubes. The tubes were inverted 3-4 times for mixing, then centrifuged at 10,000 g for 5 min at 4 °C to separate plasma. Plasma samples were stored at -80 °C until analysis. Blood was collected via tail vein. […] The mixture was vortexed for 2 min and centrifuged at 10,000 g for 10 min at 4 °C. Processing of unknown plasma samples: 25 μL of drug-containing rat plasma was transferred, followed by addition of 25 μL of methanol and 200 μL of internal standard solution. The mixture was vortexed for 2 min and centrifuged at 10,000 g for 10 min at 4 °C. The supernatant was collected for LC-MS/MS analysis. A quantitative method for the determination of the test compound was established using a Shimadzu liquid chromatography system coupled with Triple Quad^TM 6500+ AB mass spectrometer. The concentration of the parent drug in plasma was determined. The plasma concentration-time curve was plotted, and the main pharmacokinetic parameters were calculated using a non-compartmental model in winnonlin Phoenix software.

SMILES: COC(=O)N1CCC(Nc2ncc(Cl)c(-c3cc(F)c4nc5n(c4c3)CCCN5C)n2)CC1 [TB-93, methyl 4-((5-chloro-4-(9-fluoro-1-methyl-1,2,3,4-tetrahydrobenzo[4,5]imidazo[1,2-a]pyrimidin-7-yl)pyrimidin-2-yl)amino)piperidine-1-carboxylate]
- IC50 ([1]; Homo sapiens, MCF7, 120 h): 500 to 2000 nM
- IC50 ([2]; Homo sapiens, 120 h): ≤ 500 nM
- IC50 ([3]; Homo sapiens, 120 h): ≤ 500 nM

SMILES: CN1CCCn2c1nc1c(F)cc(-c3nc(N[C@@H]4CCOC[C@H]4O)ncc3C(F)(F)F)cc12 [TB-41, (3S,4R)-4-((4-(9-fluoro-1-methyl-1,2,3,4-tetrahydrobenzo[4,5]imidazo[1,2-a]pyrimidin-7-yl)-5-(trifluoromethyl)pyrimidin-2-yl)amino)tetrahydro-2H-pyran-3-ol]
- IC50 ([1]; Homo sapiens, MCF7, 120 h): 500 to 2000 nM
- IC50 ([2]; Homo sapiens, 120 h): 500 to 2000 nM
- IC50 ([3]; Homo sapiens, 120 h): 500 to 2000 nM

SMILES: C[C@H]1CCN(C2CCC2)c2nc3c(F)cc(-c4nc(N[C@@H]5CCOC[C@H]5O)ncc4Cl)cc3n21 [TA-5]
- IC50 ([1]; Homo sapiens, MCF7, 120 h): 500 to 2000 nM
- IC50 ([2]; Homo sapiens, 120 h): ≤ 500 nM
- IC50 ([3]; Homo sapiens, 120 h): ≤ 500 nM

SMILES: [2H]C([2H])([2H])N1CC[C@H](C)n2c1nc1c(F)cc(-c3nc(N[C@@H]4CCOC[C@H]4O)ncc3Cl)cc12 [TA-28]
- IC50 ([1]; read-out: MCF7 IC50): ≤ 500 nM
- IC50 [2]: ≤ 500 nM
- IC50 [3]: ≤ 500 nM
- HL_ [4]: 1.58 h
- AUC(0-t) ([4]; in vivo): 2490 ng·h/mL
- Cmax ([4]; in vivo): 990 ng/mL
- Tmax ([4]; in vivo): 0.5 h

SMILES: C[C@H]1C[C@H](C)n2c(nc3c(F)cc(-c4nc(N[C@@H]5CCOC[C@H]5O)ncc4Cl)cc32)N1C [TB-153]
- IC50 ([1]; read-out: MCF7 IC50): ≤ 500 nM
- IC50 [2]: ≤ 500 nM
- IC50 [3]: ≤ 500 nM

SMILES: C[C@H]1CCN(c2c(F)cccc2F)c2nc3c(F)cc(-c4nc(N[C@@H]5CCOC[C@H]5O)ncc4Cl)cc3n21 [TC-15]
- IC50 ([1]; Homo sapiens, MCF7, 120 h): 500 to 2000 nM
- IC50 ([2]; Homo sapiens, 120 h): 500 to 2000 nM
- IC50 ([3]; Homo sapiens, 120 h): 500 to 2000 nM

SMILES: C[C@H]1CCN(CC(F)F)c2nc3c(F)cc(-c4nc(N[C@@H]5CCOC[C@H]5O)ncc4Cl)cc3n21 [TC-6]
- IC50 ([1]; Homo sapiens, MCF7, 120 h): 500 to 2000 nM
- IC50 ([2]; Homo sapiens, 120 h): ≤ 500 nM
- IC50 ([3]; Homo sapiens, 120 h): ≤ 500 nM

SMILES: C[C@H]1CCN(C2CCCC2)c2nc3c(F)cc(-c4nc(N[C@@H]5CCOC[C@H]5O)ncc4Cl)cc3n21 [TA-6]
- IC50 ([1]; Homo sapiens, MCF7, 120 h): ≤ 500 nM
- IC50 ([2]; Homo sapiens, 120 h): 500 to 2000 nM
- IC50 ([3]; Homo sapiens, 120 h): ≤ 500 nM

SMILES: CC(C)n1c(N2CCOC2=O)nc2c(F)cc(-c3nc(N[C@@H]4CCOC[C@H]4O)ncc3C(F)(F)F)cc21 [TB-27]
- AUC(0-t) ([4]; Sprague-Dawley): 11500 ng·h/mL
- Cmax ([4]; Sprague-Dawley): 1500 ng/mL
- Tmax ([4]; Sprague-Dawley): 2.33 h
- HL_ [4]: 3.69 h

SMILES: C[C@H]1CCN(S(C)(=O)=O)c2nc3c(F)cc(-c4nc(N[C@@H]5CCOC[C@H]5O)ncc4Cl)cc3n21 [TC-8]
- IC50 ([1]; Homo sapiens, MCF7, 120 h): > 2000 nM
- IC50 ([2]; Homo sapiens, 120 h): > 2000 nM
- IC50 ([3]; Homo sapiens, 120 h): 500 to 2000 nM

SMILES: C[C@H]1CCN(C2COC2)c2nc3c(F)cc(-c4nc(N[C@@H]5CCOC[C@H]5O)ncc4Cl)cc3n21 [TA-30]
- IC50 ([1]; Homo sapiens, MCF7, 120 h): > 2000 nM
- IC50 ([2]; Homo sapiens, 120 h): > 2000 nM
- IC50 ([3]; Homo sapiens, 120 h): > 2000 nM

SMILES: C[C@H]1CCN(c2ccccc2C#N)c2nc3c(F)cc(-c4nc(N[C@@H]5CCOC[C@H]5O)ncc4Cl)cc3n21 [TC-18]
- IC50 ([1]; Homo sapiens, MCF7, 120 h): ≤ 500 nM
- IC50 ([2]; Homo sapiens, 120 h): ≤ 500 nM
- IC50 ([3]; Homo sapiens, 120 h): ≤ 500 nM
